# Data as given in patent US9452997B2, “Piperidine and piperazine derivatives as autotaxin inhibitors” (Merck Patent GmbH, priority 2009, dated 2016).
# Target: T1, Recombinant autotaxin (Homo sapiens, UniProt Q13822)
# T1 construct: made in house; host or cells: Hi5 insect cells (baculovirus)
# Test: Autotaxin assay (Amplex Red, LPC substrate)
# Assay type: biochemical
# Conditions: recombinant autotaxin, LPC substrate, Amplex Red detection; values given as upper bounds
# Procedure: Autotaxin activity is measured indirectly by means of Amplex Red Reagent. In this course, Amplex Red is measured as fluorogenic indicator for generated H2O2. Autotaxin converts substrate lysophosphatidylcholine (LPC) to phosphocholine and lysophosphatidylic acid (LPA). After the conversion phosphocholine is reacted with alkaline phosphatase to obtain inorganic phosphate and choline. During the next step choline is oxidized with choline oxidase to yield betaine, whereby H2O2 is generated. H2O2 reacts with Amplex Red Reagent in the presence of peroxidase (Horseradish peroxidase) in an 1:1 stochiometry and yields highly fluorescent resorufin. The generated fluorescence is measured in a reaction-dependent kinetic mode in order to enable subtraction of fluorescence signals of possible other fluorescent compounds that are not part of the reaction from total measured fluorescence.
# 1.5 μl of a standard solution or of the compounds of the invention are dissolved in 20 mM Hepes pH 7.2 with maximally 7.7% DMSO in individual concentrations. The resulting solution is pre-incubated together with 10 μl (16 ng) of highly purified recombinant autotaxin in a black 384-hole microtiter plate for 30 min at 22° C.
# Thereafter, the reaction is started through the addition of 5 μL-a-lysophosphatidyl-choline (LPC), whereby the final concentration of LPC is 75 μM. The mixture is incubated for 90 min. at 37° C. After the incubation Amplex Red Reagent, peroxidase (Horseradish peroxidase) and choline oxidase are added. The fluorescence is immediately measured at a wavelength of 612 nm with an excitation wavelength of 485 nm in a “Tecan Ultra multimode” fluorescence reader. The activity of autotaxin is indirectly calculated via the amount of detected generated H2O2.
# For IC50 analysis, ten serial 1:3 dilutions starting at 30 μM for each compound were run in duplicates.
# IC50 values were calculated on normalized data. For normalization, control wells were added to each assay plate and the signal of uninhibited control wells was set to 100%, whereas the signal inhibited by 500 μM C14 LPA, (Avanti Polar Lipids, Cat#857120P) was set to 0%. Curves were fitted and IC50 values calculated by the following model using proprietory analysis software: Y=Bottom+(100−Bottom)/(1+10^((Log IC50−X)*HillSlope)) Where X is the logarithm of concentration. Y is the response; Y starts at Bottom and goes to Top with a sigmoid shape. Material
# Microtiter plate: PS-Microplate, 384-hole, small volume, black Corning, Cat#3677
# Protein: Recombinant autotaxin (baculoviral Hi5 expression)
# Substrate: L-a-lysophosphatidyl choline (chicken egg); Avanti Polar Lipids #830071P
# Standard: C14 LPA, Avanti Polar Lipids, Cat#857120P
# Detection Reagent: Amplex Red Reagent; Invitrogen #A12222; dissolved in 1.923 ml of DMSO peroxidase Type VI-A (horseradish), Sigma #P6782; dissolved in 7.45 ml of test buffer, Choline Oxidase; Sigma #C5896; dissolved in 2.47 ml test buffer
# Detection Reagent Mix: 1:100 dilution of Amplex Red Regent in test buffer
# Test buffer: 200 mM Tris-HCl, Merck, Cat #1.08219, pH 7.9; 0.1% BSA, lipid free, Roche Cat#775835
row,IC50 [µM],SMILES
1,< 10,"O=C(OCc1ccc(Br)cc1F)N1CCN(C2CCN(C(=O)c3ccc4[nH]nnc4c3)CC2)CC1 [Compound 156, 4-[1-(1H-Benzotriazole-5-carbonyl)-piperidin-4-yl]-piperazine-1-carboxylic acid 4-bromo-2-fluoro-benzyl ester]"
2,< 1,"O=C(OCc1cccc(OC(F)(F)F)c1)N1CCN(C2CCN(C(=O)c3ccc4[nH]nnc4c3)CC2)CC1 [Compound 128, 4-[1-(1H-Benzotriazole-5-carbonyl)-piperidin-4-yl]-piperazine-1-carboxylic acid 3-trifluoromethoxy-benzyl ester]"
3,< 1,"O=C(Cc1ccc2[nH]nnc2c1)N1CCC(N2CCN(C(=O)OCc3cc(C(F)(F)F)cc(C(F)(F)F)c3)CC2)CC1 [Compound 139, 4-[1-(2-1H-Benzotriazol-5-yl-acetyl)-piperidin-4-yl]-piperazine-1-carboxylic acid 3,5-bis-trifluoromethyl-benzyl ester]"
4,< 1,"O=C(OCc1c(F)c(F)c(C(F)(F)F)c(F)c1F)N1CCN(C2CCN(C(=O)c3ccc4[nH]nnc4c3)CC2)CC1 [Compound 114, 4-[1-(1H-Benzotriazole-5-carbonyl)-piperidin-4-yl]-piperazine-1-carboxylic acid 2,3,5,6-tetrafluoro-4-trifluoromethyl-benzyl ester]"
5,< 1,"O=C(OCc1ccc(C(F)(F)F)cc1F)N1CCC(N2CCN(C(=O)c3ccc4[nH]nnc4c3)CC2)CC1 [Compound 73, 4-[4-(1H-Benzotriazole-5-carbonyl)-piperazin-1-yl]-piperidine-1-carboxylic acid 2-fluoro-4-trifluoromethyl-benzyl ester]"
6,< 1,"O=C(OCc1ccc(Cl)cc1F)N1CCN(C2CCN(C(=O)c3ccc4[nH]nnc4c3)CC2)CC1 [Compound 36, 4-[1-(1H-Benzotriazole-5-carbonyl)-piperidin-4-yl]-piperazine-1-carboxylic acid 4-chloro-2-fluoro-benzyl ester]"
7,< 10,"Cc1nc(-c2ccc(C(F)(F)F)cc2)sc1C(=O)N1CCN(C2CCN(C(=O)c3ccc4[nH]nnc4c3)CC2)CC1 [Compound 48, (1H-Benzotriazol-5-yl)-(4-{4-[4-methyl-2-(4-trifluoromethyl-phenyl)-thiazole-5-carbonyl]-piperazin-1-yl}-piperidin-1-yl)-methanone]"
8,< 1,"O=C(CCc1ccc(C(F)(F)F)c(F)c1)N1CCN(C2CCN(C(=O)c3ccc4[nH]nnc4c3)CC2)CC1 [Compound 105, 1-{4-[1-(1H-Benzotriazole-5-carbonyl)-piperidin-4-yl]-piperazin-1-yl}-3-(3-fluoro-4-trifluoromethyl-phenyl)-propan-1-one]"
9,< 1,"O=C(OCc1ccc(Br)cc1)N1CCN(C2CCN(C(=O)c3ccc4[nH]nnc4c3)CC2)CC1 [Compound 155, 4-[1-(1H-Benzotriazole-5-carbonyl)-piperidin-4-yl]-piperazine-1-carboxylic acid 4-bromo-benzyl ester]"
10,< 1,"O=C(OCc1ccc(SC(F)(F)F)cc1)N1CCN(C2CCN(C(=O)c3ccc4[nH]nnc4c3)CC2)CC1 [Compound 37, 4-[1-(1H-Benzotriazole-5-carbonyl)-piperidin-4-yl]-piperazine-1-carboxylic acid 4-trifluoromethylsulfanyl-benzyl ester]"
11,< 10,"C[C@H](OC(=O)N1CCN(C2CCN(C(=O)c3ccc4[nH]nnc4c3)CC2)CC1)c1cc(C(F)(F)F)cc(C(F)(F)F)c1 [Compound 171, 4-[1-(1H-Benzotriazole-5-carbonyl)-piperidin-4-yl]-piperazine-1-carboxylic acid (S)-1-(3,5-bis-trifluoromethyl-phenyl)-ethyl ester]"
12,< 10,"O=C(OCc1ccc(C(F)(F)F)cc1)N1CCN(CC2CCN(C(=O)c3ccc4[nH]nnc4c3)CC2)CC1 [Compound 109, 4-[1-(1H-Benzotriazole-5-carbonyl)-piperidin-4-ylmethyl]-piperazine-1-carboxylic acid 4-trifluoromethyl-benzyl ester]"

# More lines, now with the values behind:
row,SMILES,IC50 [µM]
1,"O=C(OCc1cc(Cl)cc(Cl)c1)N1CCC(N2CCN(C(=O)c3ccc4[nH]c(=O)oc4c3)CC2)CC1 [Compound 25, 4-[4-(2-Oxo-2,3-dihydro-benzooxazole-6-carbonyl)-piperazin-1-yl]-piperidine-1-carboxylic acid 3,5-dichloro-benzyl ester]",< 1
2,"O=C(NC1CCN(C2CCN(C(=O)OCc3ccc(Cl)cc3)CC2)C1)c1ccc2[nH]nnc2c1 (stereo not drawn) [Compound 7, 4-{3-[(1H-Benzotriazole-5-carbonyl)-amino]-pyrrolidin-1-yl}-piperidine-1-carboxylic acid 4-chloro-benzyl ester]",< 10
3,"O=C(Cc1ccc(C(F)(F)F)cc1F)N1CCN(C2CCN(C(=O)c3ccc4[nH]nnc4c3)CC2)CC1 [Compound 103, 1-{4-[1-(1H-Benzotriazole-5-carbonyl)-piperidin-4-yl]-piperazin-1-yl}-2-(2-fluoro-4-trifluoromethyl-phenyl)-ethanone]",< 30
4,"O=C(Nc1ccc(N2CCN(C(=O)OCc3ccc(C(F)(F)F)cc3)CC2)nc1)c1ccc2[nH]nnc2c1 [Compound 110, 4-{5-[(1H-Benzotriazole-5-carbonyl)-amino]-pyridin-2-yl}-piperazine-1-carboxylic acid 4-trifluoromethyl-benzyl ester]",< 30
5,"O=C(Cc1cc(C(F)(F)F)cc(C(F)(F)F)c1)N1CCN(C2CCN(C(=O)c3ccc4[nH]c(=O)oc4c3)CC2)CC1 [Compound 142, 6-(4-{4-[2-(3,5-Bis-trifluoromethyl-phenyl)-acetyl]-piperazin-1-yl}-piperidine-1-carbonyl)-3H-benzooxazol-2-one]",< 10
6,"O=C(NC1CCN(C2CCN(C(=O)OCc3cc(Cl)cc(Cl)c3)CC2)C1)c1ccc2[nH]nnc2c1 (stereo not drawn) [Compound 9, 4-{3-[(1H-Benzotriazole-5-carbonyl)-amino]-pyrrolidin-1-yl}-piperidine-1-carboxylic acid 3,5-dichloro-benzyl ester]",< 1
7,"O=C(Nc1ccc2[nH]c(=O)oc2c1)C1CC(=O)N(C2CCN(C(=O)OCc3ccc(Cl)cc3)CC2)C1 (stereo not drawn) [Compound 16, 4-[2-Oxo-4-(2-oxo-2,3-dihydro-benzooxazol-6-ylcarbamoyl)-pyrrolidin-1-yl]-piperidine-1-carboxylic acid 4-chloro-benzyl ester]",< 10
8,"O=C(OCc1cc(C(F)(F)F)cc(C(F)(F)F)c1)N1CCN(C2CCN(C(=O)c3ccc4[nH]c(=O)sc4c3)CC2)CC1 [Compound 163, 4-[1-(2-Oxo-2,3-dihydro-benzothiazole-6-carbonyl)-piperidin-4-yl]-piperazine-1-carboxylic acid 3,5-bis-trifluoromethyl-benzyl ester]",< 1
9,"O=C(CCc1ccc(C(F)(F)F)cc1)N1CCN(C2CCN(C(=O)c3ccc4[nH]c(=O)oc4c3)CC2)CC1 [Compound 33, 6-(4-{4-[3-(4-Trifluoromethyl-phenyl)-propionyl]-piperazin-1-yl}-piperidine-1-carbonyl)-3H-benzooxazol-2-one]",< 1
10,"O=C(CCc1ccc(C(F)(F)F)cc1)N1CCC(C2CCN(C(=O)c3ccc4[nH]nnc4c3)CC2)CC1 [Compound 22, 1-[1′-(1H-Benzotriazole-5-carbonyl)-[4,4′]bipiperidinyl-1-yl]-3-(4-trifluoromethyl-phenyl)-propan-1-one]",< 1
11,"O=C(Cc1ccc2[nH]nnc2c1)N1CCC(N2CCN(C(=O)Nc3cc(Cl)cc(Cl)c3)CC2)CC1 [Compound 140, 4-[1-(2-1H-Benzotriazol-5-yl-acetyl)-piperidin-4-yl]-piperazine-1-carboxylic acid (3,5-dichloro-phenyl)-amide]",< 10
12,"O=C(Nc1ccc(-c2csnn2)cc1)C1CC(=O)N(C2CCN(C(=O)OCc3cc(Cl)cc(Cl)c3)CC2)C1 (stereo not drawn) [Compound 57, 4-[2-Oxo-4-(4-[1,2,3]thiadiazol-4-yl-phenylcarbamoyl)-pyrrolidin-1-yl]-piperidine-1-carboxylic acid 3,5-dichloro-benzyl ester]",< 10
